Source: patent US11773078B2, “Furin inhibitors” (Glaxosmithkline Intellectual Property Development Limited, priority 2018, dated 2023)
Where a name gives a salt, the structure may show the parent alone.

Columns and labels:
[1] = biological target: T1, furin (endogenous protease) in U20S cells (Homo sapiens, UniProt P09958); assay: Furin cell-based assay (image-based, Golgi-targeted GFP with BMP10 furin/PCSK cleavage site); details: 24-hour incubation, read-out: furin golgi cell pXC50 (converted);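 further: Read-out is mean GFP fluorescence of Golgi puncta per cell by high-content imaging, retained when furin inhibited, over an eleven-point 0.00017–10 µM series, four-parameter fit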
T1 construct: the endogenous protease cleaves GFP; endogenous in cells; host or cells: U2OS cells transduced with a BacMam reporter

[2] = biological target: T2, Furin (108-574-Tev-Flag-His) enzyme (Homo sapiens, UniProt P09958); assay: Furin enzyme assay; assay type: biochemical
T2 construct: Furin (108-574-Tev-Flag-His) enzyme was expressed and purified from CHO cells; TEV cleavage site (C); FLAG (C); His (C); made in house; host or cells: CHO cells
Outline: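 Compounds ran as 11-point threefold dilutions (0.00017–10 μM final) against 40 pM furin, purified from CHO cells, for 2 h at room temperature. Buffer: 100 mM HEPES pH7.5 with 1 mM CaCl2 and 0.005% Triton X-100. Envision readout. Four-parameter curve gives pXC50.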

[3] = tested on: hydroxyproline (a specific marker for collagen) in mouse lung; assay: Bleomycin induced lung fibrosis model: hydroxyproline assay; assay type: in vivo; details: relative to levels induced by Bleomycin in vehicle treated animals, *p < 0.05
Protocol: (§1) Preclinical pulmonary fibrosis can be induced by single instillation of Bleomycin to the mouse lung. A 15-day Bleomycin protocol was developed to evaluate compounds of the invention in vivo for their ability to inhibit TGFβ secretion and collagen deposition in the mouse lung. On the day before Bleomycin instillation, compounds were administrated to mice based on the appropriate route and frequency. On the study initiation day, under Ketamine (80 mg/kg) and Xylazine (10 mg/kg) anesthesia, all the animals were cannulated oro-tracheally and 50 μL of normal saline (Sham control) or 0.03 U Bleomycin in 50 μL saline (all groups except sham control group) was delivered into the trachea. Compounds were dosed daily until the end of study on Day 15. On termination day, animals were euthanized using CO2 inhalation. The right lung was collected, washed in normal saline, weighed, flash frozen in liquid nitrogen and stored at −80° C. for hydroxyproline (a specific marker for collagen) and TGFβ assays.
(§2) Flash frozen whole right lung tissues were homogenized in 500 μL of RIPA buffer containing PMSF and protease inhibitor cocktail using zirconium oxide bead based homogenizer (Bullet blender Gold, NextAdvance, Germany). Briefly, tissues were spun in the homogenizer at 4° C. for three cycles of 10 minutes each at 1000 g. A complete uniform tissue mixture was obtained using this procedure. The homogenate volume was made up to 1.5 mL by adding 1 mL of RIPA buffer containing PMSF and protease inhibitor cocktail to 500 μL of homogenate. The homogenate was stored as aliquots of 100-500 μL each at −80° C.
Acid hydrolysis: 500 μL of the homogenized lung parenchyma was transferred to glass vials, and an equal volume of 12N HCl was added (final concentration of HCl: 6N). The vials were purged with nitrogen gas, sealed and incubated overnight (16 h) under anoxic conditions at 110° C.
Post incubation procedures: 35 μL of the sample from each tube or standard (prepared by serial dilution of hydroxyproline stock solution) was added onto a 96 well plate and the assay was performed as per the kit protocol (Quickzyme Biosciences: Cat #: QZBHYPR05). After the final color development, absorbance was measured by colorimetric analysis at 570 nm (using Thermoscan spectrum (Plate Reader) and results were recorded. Standard curve (linear graph) was generated by using hydroxyproline standards provided in the Quickzyme kit.

[4] = tested on: TGFβ in mouse lung; assay: Bleomycin induced lung fibrosis model: TGFβ assay; assay type: in vivo; details: relative to levels induced by Bleomycin in vehicle treated animals, *p < 0.05
Protocol: as §1, §2
Lung tissue homogenates (500 μL) were spun at 13,000 rpm for 20 minutes at 4° C. and supernatants were collected for TGFβ estimation. The assay was performed according to the manufacturer's manual (R&D systems: Cat #SMB100B). Briefly, the lung homogenates were activated by acid activation followed by neutralization to convert latent TGFβ to active TGFβ and the total TGFβ levels in supernatants were measured. Total protein levels in the lung supernatant were also determined.

[5] = tested on: epithelial sodium channel (ENaC); assay: TEER assay, chronic or acute treatment, Non-CF Polarized Human Lobar Bronchial Epithelial Cells; assay type: cell-based; parameters: RTE Before Amil / RTE After Amil: unit not given here; details: for Delta RTE / RTE After Amil / RTE Before Amil: chronic treatment (overnight)
Protocol: Primary cultures of CF delF508 or non-CF HBE cells are seeded onto permeable filter supports and grown for 12-14 days for a significant RTE to be measured for TEER assays.
When the ENaC is active under basal conditions (at least in part due to protease cleavage inside the cell or at the apical membrane), there is a finite RTE that is affected by the Na+ current flowing through ENaC heterotrimers (αβγ or δβγ).

[6] = acute treatment, 3 μM thru 50 μM
[7] = 10 mg/kg, Intra-peritoneal, Twice daily
[8] = 10 mg/kg, Intra-peritoneal, Once daily

T1 sequence (P09958 108-794): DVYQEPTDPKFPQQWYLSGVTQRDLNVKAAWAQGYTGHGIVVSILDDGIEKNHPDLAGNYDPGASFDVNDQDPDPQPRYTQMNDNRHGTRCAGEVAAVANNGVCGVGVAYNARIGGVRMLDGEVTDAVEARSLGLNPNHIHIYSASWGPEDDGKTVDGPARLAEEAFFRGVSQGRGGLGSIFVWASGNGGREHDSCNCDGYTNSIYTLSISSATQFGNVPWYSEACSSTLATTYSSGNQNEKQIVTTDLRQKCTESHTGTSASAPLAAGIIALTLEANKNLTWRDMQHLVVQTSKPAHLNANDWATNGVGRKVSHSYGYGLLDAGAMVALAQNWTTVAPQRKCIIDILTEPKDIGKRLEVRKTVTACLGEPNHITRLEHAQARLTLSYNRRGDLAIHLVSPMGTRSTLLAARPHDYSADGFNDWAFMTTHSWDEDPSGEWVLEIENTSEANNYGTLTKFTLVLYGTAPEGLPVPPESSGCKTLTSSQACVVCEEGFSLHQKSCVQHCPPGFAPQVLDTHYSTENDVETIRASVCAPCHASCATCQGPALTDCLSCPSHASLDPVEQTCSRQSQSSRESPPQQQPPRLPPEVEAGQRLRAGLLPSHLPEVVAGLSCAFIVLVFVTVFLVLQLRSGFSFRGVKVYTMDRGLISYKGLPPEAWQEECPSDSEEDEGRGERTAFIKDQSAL
T2 sequence (P09958 108-574): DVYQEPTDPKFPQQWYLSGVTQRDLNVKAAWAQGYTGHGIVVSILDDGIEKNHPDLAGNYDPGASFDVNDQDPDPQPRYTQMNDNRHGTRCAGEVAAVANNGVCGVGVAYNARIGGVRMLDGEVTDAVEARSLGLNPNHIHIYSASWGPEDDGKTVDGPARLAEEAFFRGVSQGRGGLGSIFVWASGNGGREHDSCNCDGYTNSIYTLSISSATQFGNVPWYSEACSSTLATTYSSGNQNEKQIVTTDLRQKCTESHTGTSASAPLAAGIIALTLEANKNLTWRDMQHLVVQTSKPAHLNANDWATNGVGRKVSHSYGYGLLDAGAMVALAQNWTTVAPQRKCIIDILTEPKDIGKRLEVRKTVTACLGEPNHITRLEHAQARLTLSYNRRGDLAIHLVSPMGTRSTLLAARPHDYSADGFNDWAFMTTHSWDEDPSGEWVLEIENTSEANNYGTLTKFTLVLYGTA

For `CC(CC1CCN(Cc2cc(Oc3cnc(N4CCN(C)CC4)nc3)nc(-c3cc(Cl)cc(Cl)c3)c2)CC1)C(=O)O` (stereo in doubt) [Example 137, (R)-3-(1-((2-(3,5-dichlorophenyl)-6-((2-(4-methylpiperazin-1-yl)pyrimidin-5-yl)oxy)pyridin-4-yl)methyl)piperidin-4-yl)-2-methylpropanoic acid], the EC50 [1] was 10 nM, the “furin enzyme pIC50” value [2] was 9.1 and the “% inhibition of hydroxyproline in lung” value ([3]; 10 mg/kg, Oral, Once daily) was 54* %. For the same compound, the “% inhibition of total TGFβ in lung” value ([4]; 10 mg/kg, Oral, Once daily) was 81* %.
`CN(C)C(=O)COC(=O)Cc1ccc(OC(=O)c2ccc(NC(=N)N)cc2)cc1` [Camostat] was tested, and the “Delta RTE after Amil” value [5, 6] was “+15 ± 2”, the “Delta RTE after Volume Additions” value [5, 6] was “+82 ± 4” and the “inhibition of amiloride-sensitive RTE delta (remaining ENaC activity)” value ([5]; acute treatment, tested at much higher concentrations than Example 11) was “more strongly”. For the same compound, the “effect on the amiloride-sensitive RTE delta” value ([5]; chronic overnight treatment, 50 μM, P<0.05) was “equivalent inhibitory effect”, the “Delta RTE” value ([5]; 3 μM) was “+172 ± 20” and the “RTE After Amil” value ([5]; 3 μM) was 615 ± 26. For the same compound, the “RTE Before Amil” value ([5]; 3 μM) was 443 ± 6, the “Delta RTE” value ([5]; 10 μM) was “+119 ± 1” and the “RTE After Amil” value ([5]; 10 μM) was 506 ± 10. For the same compound, the “RTE Before Amil” value ([5]; 10 μM) was 387 ± 11, the “Delta RTE” value ([5]; 30 μM) was “+163 ± 8” and the “RTE After Amil” value ([5]; 30 μM) was 635 ± 13. For the same compound, the “RTE Before Amil” value ([5]; 30 μM) was 472 ± 6, the “Delta RTE” value ([5]; 50 μM) was “+98 ± 2” and the “RTE After Amil” value ([5]; 50 μM) was 446 ± 3. The “RTE Before Amil” value ([5]; 50 μM) was 348 ± 4.
In the case of `CC(=O)NCC1CCN(Cc2cc(Oc3ccc(N4CCN(CC(=O)O)CC4)nc3)nc(-c3cc(Cl)cc(Cl)c3)c2)CC1` [Example 10, 2-(4-(5-((4-((4-(Acetamidomethyl)piperidin-1-yl)methyl)-6-(3,5-dichlorophenyl)pyridin-2-yl)oxy)pyridin-2-yl)piperazin-1-yl)acetic acid, 4 hydrochloride], the EC50 [1] is reported as 126 nM, the “furin enzyme pIC50” value [2] is reported as 8.7 and the “% inhibition of hydroxyproline in lung” value [3, 7] is reported as 16%. The “% inhibition of total TGFβ in lung” value [4, 7] was 43* %.
With `CC(=O)NCC1CCN(Cc2cc(Oc3ccc(N4CCN(CCS(C)(=O)=O)CC4)nc3)nc(-c3cc(Cl)cc(Cl)c3)c2)CC1` [Example 12, N-((1-((2-(3,5-Dichlorophenyl)-6-((6-(4-(2-(methylsulfonyl)ethyl)piperazin-1-yl)pyridin-3-yl)oxy)pyridin-4-yl)methyl)piperidin-4-yl)methyl)acetamide, 4 hydrochloride] the EC50 [1] was 25.1 nM, the “furin enzyme pIC50” value [2] was 8.3 and the “% inhibition of hydroxyproline in lung” value ([3]; 30 mg/kg, Oral, Once daily) was 45* %. For the same compound, the “% inhibition of total TGFβ in lung” value ([4]; 30 mg/kg, Oral, Once daily) was 41* %.
In the case of `CNC(=O)NCC1CCN(Cc2cc(Oc3ccc(N4CCN(CCC(=O)O)CC4)nc3)nc(-c3cc(Cl)cc(Cl)c3)c2)CC1` [Example 41, 3-(4-(5-((6-(3,5-Dichlorophenyl)-4-((4-((3-methylureido)methyl)piperidin-1-yl)methyl)pyridin-2-yl)oxy)pyridin-2-yl)piperazin-1-yl)propanoic acid], the EC50 [1] is reported as 25.1 nM, the “furin enzyme pIC50” value [2] is reported as 9.1 and the “% inhibition of hydroxyproline in lung” value [3, 8] is reported as 39* %. For the same compound, the “% inhibition of total TGFβ in lung” value [4, 8] was 67* %.
In the case of `COC(=O)NCC1CCN(Cc2cc(Oc3cnc(N4CCN(CCC(=O)O)CC4)nc3)nc(-c3cc(Cl)cc(Cl)c3)c2)CC1` [Example 62, 3-(4-(5-((6-(3,5-Dichlorophenyl)-4-1(4-(((methoxycarbonyl)amino)methyl)piperidin-1-yl)methyl)pyridin-2-yl)oxy)pyrimidin-2-yl)piperazin-1-yl)propanoic acid, 4 hydrochloride], the EC50 [1] is reported as 31.6 nM, the “furin enzyme pIC50” value [2] is reported as 9.8 and the “% inhibition of hydroxyproline in lung” value ([3]; 30 mg/kg, Oral, Once daily) is reported as −14%. The “% inhibition of total TGFβ in lung” value ([4]; 30 mg/kg, Oral, Once daily) was 7%.
With `CN1CCCN(c2ncc(Oc3cc(CN4CCC(CC(=O)O)CC4)cc(-c4cc(Cl)cc(Cl)c4)n3)cn2)CC1` [Example 126, 2-(1-((2-(3,5-Dichlorophenyl)-6-((2-(4-methyl-1,4-diazepan-1-yl)pyrimidin-5-yl)oxy)pyridin-4-yl)methyl)piperidin-4-yl)acetic acid] the EC50 [1] was 6.31 nM, the “furin enzyme pIC50” value [2] was 9 and the “% inhibition of hydroxyproline in lung” value ([3]; 30 mg/kg, Oral, Once daily) was 36* %. For the same compound, the “% inhibition of total TGFβ in lung” value ([4]; 30 mg/kg, Oral, Once daily) was 34* %.
With `CC(=O)NCC1CCN(Cc2cc(Oc3ccc(N4CCN(CCO)CC4)nc3)nc(-c3cc(Cl)cc(Cl)c3)c2)CC1` [Example 180, N-((1-((2-(3,5-Dichlorophenyl)-6-((6-(4-(2-hydroxyethyl)piperazin-1-yl)pyridin-3-yl)oxy)pyridin-4-yl)methyl)piperidin-4-yl)methyl)acetamide] the EC50 [1] was 3.16 nM, the “furin enzyme pIC50” value [2] was 9.1 and the “% inhibition of hydroxyproline in lung” value [3, 8] was 56* %. For the same compound, the “% inhibition of total TGFβ in lung” value [4, 8] was 60* %.
For `O=C(O)CC1CCN(Cc2cc(Oc3cnc(N4CCNCC4)nc3)nc(-c3cc(Cl)cc(Cl)c3)c2)CC1` [Example 206, 2-(1-((2-(3,5-Dichlorophenyl)-6-((2-(piperazin-1-yl)pyrimidin-5-yl)oxy)pyridin-4-yl)methyl)piperidin-4-yl)acetic acid], the EC50 [1] was 25.1 nM, the “furin enzyme pIC50” value [2] was 8.6 and the “% inhibition of hydroxyproline in lung” value ([3]; 10 mg/kg, Oral, Once daily) was 6%. For the same compound, the “% inhibition of total TGFβ in lung” value ([4]; 10 mg/kg, Oral, Once daily) was −11%.
With `CN1CCN(c2ncc(Oc3cc(CN4CCC(CC(=O)O)CC4)cc(-c4cc(Cl)cc(Cl)c4)n3)cn2)CC1` [Example 207, 2-(1-((2-(3,5-Dichlorophenyl)-6-((2-(4-methylpiperazin-1-yl)pyrimidin-5-yl)oxy)pyridin-4-yl)methyl)piperidin-4-yl)acetic acid] the “% inhibition of hydroxyproline in lung” value ([3]; 10 mg/kg, Oral, Once daily) was 46* % and the “% inhibition of total TGFβ in lung” value ([4]; 10 mg/kg, Oral, Once daily) was 66* %.
For `CC(=O)NCC1CCN(Cc2cc(Oc3cnc(N4CCN(CCC(C)C(=O)O)CC4)cn3)nc(-c3cc(Cl)cc(Cl)c3)c2)CC1` (stereo not shown) [Example 396, 4-(4-(5-((4-((4-(acetamidomethyl)piperidin-1-yl)methyl)-6-(3,5-dichlorophenyl)pyridin-2-yl)oxy)pyrazin-2-yl)piperazin-1-yl)-2-methylbutanoic acid], the EC50 [1] was 10 nM and the “furin enzyme pIC50” value [2] was 10.3.
`CN1CCCN(c2ncc(Oc3cc(CN4CC[C@@H]5[C@H](CC4)[C@H]5C(=O)O)cc(-c4cc(Cl)cc(Cl)c4)n3)cn2)CC1` [Example 397, (1R,7S,8r)-4-((2-(3,5-Dichlorophenyl)-6-((2-(4-methyl-1,4-diazepan-1-yl)pyrimidin-5-yl)oxy)pyridin-4-yl)methyl)-4-azabicyclo[5.1.0]octane-8-carboxylic acid, 4 hydrochloride] was tested, and the EC50 [1] was 25.1 nM and the “furin enzyme pIC50” value [2] was 9.
`CN1C2CCC1CN(c1ncc(Oc3cc(CN4CCC(CC(=O)O)CC4)cc(-c4cc(Cl)cc(Cl)c4)n3)cn1)C2` [Example 398, 2-(1-((2-(3,5-dichlorophenyl)-6-((2-(8-methyl-3,8-diazabicyclo[3.2.1]octan-3-yl)pyrimidin-5-yl)oxy)pyridin-4-yl)methyl)piperidin-4-yl)acetic acid] was tested, and the EC50 [1] was 6.31 nM and the “furin enzyme pIC50” value [2] was 8.9.
In the case of `O=C(O)CC1CCN(Cc2cc(Oc3cnc(N4CCNCC(F)C4)nc3)nc(-c3cc(Cl)cc(Cl)c3)c2)CC1` (stereo not shown) [Example 399, 2-(1-((2-(3,5-dichlorophenyl)-6-((2-(6-fluoro-1,4-diazepan-1-yl)pyrimidin-5-yl)oxy)pyridin-4-yl)methyl)piperidin-4-yl)acetic acid], the EC50 [1] is reported as 39.8 nM and the “furin enzyme pIC50” value [2] is reported as 8.8.
